# According to article PMC9067983, “Identification of highly selective type II kinase inhibitors with chiral peptidomimetic tails” (Journal of Enzyme Inhibition and Medicinal Chemistry, 2022):
# Where a SMILES comes first, the peptide text is derived from it. [ ]: non-standard residue; d: D form. The star is where a group is joined. X1 = Cc1ccc(Nc2ncc3c(n2)N(C)C(=O)N(c2cc(C(=O)*)ccc2C)C3)cn1; Aib = CC(C)(N)C(=O)O
# Columns and labels:
# Type in all cases: biochemical
# BMX/ETK = biological target: T1, BMX/ETK (Homo sapiens, UniProt P51813); assay: In vitro kinase assay (IC50)
# T1 construct: purchased Reaction Biology Corp
# Experimental: (§1) Full panel kinase profiling and kinase IC50 measurement were performed by using Reaction Biology Corp. (San Diego, USA).
# Lck = biological target: T2, Lck (Homo sapiens, UniProt P06239); assay: In vitro kinase assay (IC50)
# T2 construct: purchased Reaction Biology Corp
# Experimental: as §1
# Lyn = biological target: T3, Lyn (Homo sapiens, UniProt P07948); assay: In vitro kinase assay (IC50)
# T3 construct: purchased Reaction Biology Corp
# Experimental: as §1
# ALK6/BMPR1B = biological target: T4, ALK6/BMPR1B (Homo sapiens, UniProt O00238); assay: kinase selectivity profiling; conditions: 10µM ATP, read-out: % inhibition (relative to DMSO)
# T4 construct: purchased Reaction Biology Corp
# Experimental: as §1
# CAMK1d = biological target: T5, CAMK1d (Homo sapiens, UniProt Q8IU85); assay: kinase selectivity profiling; conditions: 10µM ATP, read-out: % inhibition (relative to DMSO)
# T5 construct: purchased Reaction Biology Corp
# Experimental: as §1
# CAMK2d = biological target: T6, CAMK2d (Homo sapiens, UniProt Q13557); assay: kinase selectivity profiling; conditions: 10µM ATP, read-out: % inhibition (relative to DMSO)
# T6 construct: purchased Reaction Biology Corp
# Experimental: as §1
# CAMKK1 = biological target: T7, CAMKK1 (Homo sapiens, UniProt Q8N5S9); assay: kinase selectivity profiling; conditions: 10µM ATP, read-out: % inhibition (relative to DMSO)
# T7 construct: purchased Reaction Biology Corp
# Experimental: as §1
# CDK5/P25 = biological target: T8, CDK5/P25 (Homo sapiens, UniProt Q00535); assay: kinase selectivity profiling; conditions: 10µM ATP, read-out: % inhibition (relative to DMSO)
# T8 construct: purchased Reaction Biology Corp
# Experimental: as §1
# CDK6/cyclin D3 = biological target: T9, CDK6/cyclin D3 (Homo sapiens, UniProt Q00534); assay: kinase selectivity profiling; conditions: 10µM ATP, read-out: % inhibition (relative to DMSO)
# T9 construct: purchased Reaction Biology Corp
# Experimental: as §1
# DCAMKL1 = biological target: T10, DCAMKL1 (Homo sapiens, UniProt O15075); assay: kinase selectivity profiling; conditions: 10µM ATP, read-out: % inhibition (relative to DMSO)
# T10 construct: purchased Reaction Biology Corp
# Experimental: as §1
# DMPK2 = biological target: T11, DMPK2 (Homo sapiens, UniProt Q6DT37); assay: kinase selectivity profiling; conditions: 10µM ATP, read-out: % inhibition (relative to DMSO)
# T11 construct: purchased Reaction Biology Corp
# Experimental: as §1
# EPHA1 = biological target: T12, EPHA1 (Homo sapiens, UniProt P21709); assay: kinase selectivity profiling; conditions: 10µM ATP, read-out: % inhibition (relative to DMSO)
# T12 construct: purchased Reaction Biology Corp
# Experimental: as §1
# FAK/PTK2 = biological target: T13, FAK/PTK2 (Homo sapiens, UniProt Q05397); assay: kinase selectivity profiling; conditions: 10µM ATP, read-out: % inhibition (relative to DMSO)
# T13 construct: purchased Reaction Biology Corp
# Experimental: as §1
# FES/FPS = biological target: T14, FES/FPS (Homo sapiens, UniProt P07332); assay: kinase selectivity profiling; conditions: 10µM ATP, read-out: % inhibition (relative to DMSO)
# T14 construct: purchased Reaction Biology Corp
# Experimental: as §1
# FRK/PTK5 = biological target: T15, FRK/PTK5 (Homo sapiens, UniProt P42685); assay: kinase selectivity profiling; conditions: 10µM ATP, read-out: % inhibition (relative to DMSO)
# T15 construct: purchased Reaction Biology Corp
# Experimental: as §1
# GCK/MAP4K2 = biological target: T16, GCK/MAP4K2 (Homo sapiens, UniProt Q12851); assay: kinase selectivity profiling; conditions: 10µM ATP, read-out: % inhibition (relative to DMSO)
# T16 construct: purchased Reaction Biology Corp
# Experimental: as §1
# GRK4 = biological target: T17, GRK4 (Homo sapiens, UniProt P32298); assay: kinase selectivity profiling; conditions: 10µM ATP, read-out: % inhibition (relative to DMSO)
# T17 construct: purchased Reaction Biology Corp
# Experimental: as §1
# Haspin = biological target: T18, Haspin (Homo sapiens, UniProt Q8TF76); assay: kinase selectivity profiling; conditions: 10µM ATP, read-out: % inhibition (relative to DMSO)
# T18 construct: purchased Reaction Biology Corp
# Experimental: as §1
# IGF1R = biological target: T19, IGF1R (Homo sapiens, UniProt P08069); assay: kinase selectivity profiling; conditions: 10µM ATP, read-out: % inhibition (relative to DMSO)
# T19 construct: purchased Reaction Biology Corp
# Experimental: as §1
# IRAK4 = biological target: T20, IRAK4 (Homo sapiens, UniProt Q9NWZ3); assay: kinase selectivity profiling; conditions: 10µM ATP, read-out: % inhibition (relative to DMSO)
# T20 construct: purchased Reaction Biology Corp
# Experimental: as §1
# JAK2 = biological target: T21, JAK2 (Homo sapiens, UniProt O60674); assay: kinase selectivity profiling; conditions: 10µM ATP, read-out: % inhibition (relative to DMSO)
# T21 construct: purchased Reaction Biology Corp
# Experimental: as §1
# LOK/STK10 = biological target: T22, LOK/STK10 (Homo sapiens, UniProt O94804); assay: kinase selectivity profiling; conditions: 10µM ATP, read-out: % inhibition (relative to DMSO)
# T22 construct: purchased Reaction Biology Corp
# Experimental: as §1
# MEKK2 = biological target: T23, MEKK2 (Homo sapiens, UniProt Q9Y2U5); assay: kinase selectivity profiling; conditions: 10µM ATP, read-out: % inhibition (relative to DMSO)
# T23 construct: purchased Reaction Biology Corp
# Experimental: as §1
# MSK1/RPS6KA5 = biological target: T24, MSK1/RPS6KA5 (Homo sapiens, UniProt O75582); assay: kinase selectivity profiling; conditions: 10µM ATP, read-out: % inhibition (relative to DMSO)
# T24 construct: purchased Reaction Biology Corp
# Experimental: as §1
# MST3/STK24 = biological target: T25, MST3/STK24 (Homo sapiens, UniProt Q9Y6E0); assay: kinase selectivity profiling; conditions: 10µM ATP, read-out: % inhibition (relative to DMSO)
# T25 construct: purchased Reaction Biology Corp
# Experimental: as §1
# MUSK = biological target: T26, MUSK (Homo sapiens, UniProt O15146); assay: kinase selectivity profiling; conditions: 10µM ATP, read-out: % inhibition (relative to DMSO)
# T26 construct: purchased Reaction Biology Corp
# Experimental: as §1
# NEK9 = biological target: T27, NEK9 (Homo sapiens, UniProt Q8TD19); assay: kinase selectivity profiling; conditions: 10µM ATP, read-out: % inhibition (relative to DMSO)
# T27 construct: purchased Reaction Biology Corp
# Experimental: as §1
# NLK = biological target: T28, NLK (Homo sapiens, UniProt Q9UBE8); assay: kinase selectivity profiling; conditions: 10µM ATP, read-out: % inhibition (relative to DMSO)
# T28 construct: purchased Reaction Biology Corp
# Experimental: as §1
# PAK5 = biological target: T29, PAK5 (Homo sapiens, UniProt Q9P286); assay: kinase selectivity profiling; conditions: 10µM ATP, read-out: % inhibition (relative to DMSO)
# T29 construct: purchased Reaction Biology Corp
# Experimental: as §1
# PBK/TOPK = biological target: T30, PBK/TOPK (Homo sapiens, UniProt Q96KB5); assay: kinase selectivity profiling; conditions: 10µM ATP, read-out: % inhibition (relative to DMSO)
# T30 construct: purchased Reaction Biology Corp
# Experimental: as §1
# PKCmu/PRKD1 = biological target: T31, PKCmu/PRKD1 (Homo sapiens, UniProt Q15139); assay: kinase selectivity profiling; conditions: 10µM ATP, read-out: % inhibition (relative to DMSO)
# T31 construct: purchased Reaction Biology Corp
# Experimental: as §1
# PKG1b = biological target: T32, PKG1b (Homo sapiens, UniProt Q13976); assay: kinase selectivity profiling; conditions: 10µM ATP, read-out: % inhibition (relative to DMSO)
# T32 construct: purchased Reaction Biology Corp
# Experimental: as §1
# PKMYT1 = biological target: T33, PKMYT1 (Homo sapiens, UniProt Q99640); assay: kinase selectivity profiling; conditions: 10µM ATP, read-out: % inhibition (relative to DMSO)
# T33 construct: purchased Reaction Biology Corp
# Experimental: as §1
# PLK4/SAK = biological target: T34, PLK4/SAK (Homo sapiens, UniProt O00444); assay: kinase selectivity profiling; conditions: 10µM ATP, read-out: % inhibition (relative to DMSO)
# T34 construct: purchased Reaction Biology Corp
# Experimental: as §1
# ROCK2 = biological target: T35, ROCK2 (Homo sapiens, UniProt O75116); assay: kinase selectivity profiling; conditions: 10µM ATP, read-out: % inhibition (relative to DMSO)
# T35 construct: purchased Reaction Biology Corp
# Experimental: as §1
# SGK1 = biological target: T36, SGK1 (Homo sapiens, UniProt O00141); assay: kinase selectivity profiling; conditions: 10µM ATP, read-out: % inhibition (relative to DMSO)
# T36 construct: purchased Reaction Biology Corp
# Experimental: as §1
# SNARK/NUAK2 = biological target: T37, SNARK/NUAK2 (Homo sapiens, UniProt Q9H093); assay: kinase selectivity profiling; conditions: 10µM ATP, read-out: % inhibition (relative to DMSO)
# T37 construct: purchased Reaction Biology Corp
# Experimental: as §1
# SRPK2 = biological target: T38, SRPK2 (Homo sapiens, UniProt P78362); assay: kinase selectivity profiling; conditions: 10µM ATP, read-out: % inhibition (relative to DMSO)
# T38 construct: purchased Reaction Biology Corp
# Experimental: as §1
# SSTK/TSSK6 = biological target: T39, SSTK/TSSK6 (Homo sapiens, UniProt Q9BXA6); assay: kinase selectivity profiling; conditions: 10µM ATP, read-out: % inhibition (relative to DMSO)
# T39 construct: purchased Reaction Biology Corp
# Experimental: as §1
# TBK1 = biological target: T40, TBK1 (Homo sapiens, UniProt Q9UHD2); assay: kinase selectivity profiling; conditions: 10µM ATP, read-out: % inhibition (relative to DMSO)
# T40 construct: purchased Reaction Biology Corp
# Experimental: as §1
# TYK1/LTK = biological target: T41, TYK1/LTK (Homo sapiens, UniProt P29376); assay: kinase selectivity profiling; conditions: 10µM ATP, read-out: % inhibition (relative to DMSO)
# T41 construct: purchased Reaction Biology Corp
# Experimental: as §1
# TYRO3/SKY = biological target: T42, TYRO3/SKY (Homo sapiens, UniProt Q06418); assay: kinase selectivity profiling; conditions: 10µM ATP, read-out: % inhibition (relative to DMSO)
# T42 construct: purchased Reaction Biology Corp
# Experimental: as §1
# T2 sequence (P06239 whole entry): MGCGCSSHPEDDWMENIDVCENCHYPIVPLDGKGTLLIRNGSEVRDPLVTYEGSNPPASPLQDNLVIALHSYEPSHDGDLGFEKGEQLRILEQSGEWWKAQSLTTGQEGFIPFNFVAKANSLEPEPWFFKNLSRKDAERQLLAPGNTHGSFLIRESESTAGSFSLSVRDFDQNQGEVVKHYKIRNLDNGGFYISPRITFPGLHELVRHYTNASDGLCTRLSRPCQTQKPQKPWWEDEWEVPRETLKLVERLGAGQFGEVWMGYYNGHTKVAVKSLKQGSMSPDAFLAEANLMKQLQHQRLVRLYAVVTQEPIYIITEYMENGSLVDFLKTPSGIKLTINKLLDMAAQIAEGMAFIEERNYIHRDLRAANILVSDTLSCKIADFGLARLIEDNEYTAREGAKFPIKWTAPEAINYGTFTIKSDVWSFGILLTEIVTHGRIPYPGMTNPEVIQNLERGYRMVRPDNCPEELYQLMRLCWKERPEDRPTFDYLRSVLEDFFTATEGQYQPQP
# T26 sequence (O15146 24-869): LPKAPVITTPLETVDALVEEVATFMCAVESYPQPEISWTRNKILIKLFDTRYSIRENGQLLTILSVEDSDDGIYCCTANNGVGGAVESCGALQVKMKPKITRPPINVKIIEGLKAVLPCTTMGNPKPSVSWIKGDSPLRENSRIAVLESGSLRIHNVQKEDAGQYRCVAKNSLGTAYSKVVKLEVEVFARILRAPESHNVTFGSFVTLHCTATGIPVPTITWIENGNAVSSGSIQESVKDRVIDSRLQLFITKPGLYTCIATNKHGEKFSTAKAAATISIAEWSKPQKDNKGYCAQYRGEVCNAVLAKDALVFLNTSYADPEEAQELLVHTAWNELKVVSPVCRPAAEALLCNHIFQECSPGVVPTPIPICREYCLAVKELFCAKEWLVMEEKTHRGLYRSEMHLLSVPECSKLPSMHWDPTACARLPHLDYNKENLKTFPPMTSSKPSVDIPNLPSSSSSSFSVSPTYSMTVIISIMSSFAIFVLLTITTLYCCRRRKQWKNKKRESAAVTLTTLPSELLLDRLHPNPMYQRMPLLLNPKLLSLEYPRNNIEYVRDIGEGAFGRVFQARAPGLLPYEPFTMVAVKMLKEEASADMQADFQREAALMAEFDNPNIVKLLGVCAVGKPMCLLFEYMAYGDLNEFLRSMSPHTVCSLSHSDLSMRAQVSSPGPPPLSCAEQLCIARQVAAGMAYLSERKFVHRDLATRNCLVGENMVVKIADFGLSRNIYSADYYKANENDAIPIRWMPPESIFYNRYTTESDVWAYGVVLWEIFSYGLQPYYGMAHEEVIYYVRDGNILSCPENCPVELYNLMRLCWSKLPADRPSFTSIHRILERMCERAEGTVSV
# T32 sequence (Q13976 1-686 isoform Q13976-2): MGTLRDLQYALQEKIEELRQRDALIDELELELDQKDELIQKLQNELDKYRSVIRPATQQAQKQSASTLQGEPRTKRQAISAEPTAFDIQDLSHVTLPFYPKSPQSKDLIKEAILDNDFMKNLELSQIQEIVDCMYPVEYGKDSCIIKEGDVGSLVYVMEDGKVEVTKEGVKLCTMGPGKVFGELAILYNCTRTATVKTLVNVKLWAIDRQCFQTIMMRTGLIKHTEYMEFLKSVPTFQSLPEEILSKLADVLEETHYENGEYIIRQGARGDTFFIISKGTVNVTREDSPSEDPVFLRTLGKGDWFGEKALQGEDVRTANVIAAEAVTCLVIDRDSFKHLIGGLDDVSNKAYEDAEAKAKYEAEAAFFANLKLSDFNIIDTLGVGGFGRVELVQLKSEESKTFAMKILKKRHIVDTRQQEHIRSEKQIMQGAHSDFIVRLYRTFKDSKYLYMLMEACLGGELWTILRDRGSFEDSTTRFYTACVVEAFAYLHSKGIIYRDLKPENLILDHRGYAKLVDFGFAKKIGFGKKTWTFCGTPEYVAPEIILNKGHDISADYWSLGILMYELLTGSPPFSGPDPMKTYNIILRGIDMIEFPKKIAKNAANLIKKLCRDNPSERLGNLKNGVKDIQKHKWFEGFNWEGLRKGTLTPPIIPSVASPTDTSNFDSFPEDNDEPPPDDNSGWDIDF
# T36 sequence (O00141 whole entry): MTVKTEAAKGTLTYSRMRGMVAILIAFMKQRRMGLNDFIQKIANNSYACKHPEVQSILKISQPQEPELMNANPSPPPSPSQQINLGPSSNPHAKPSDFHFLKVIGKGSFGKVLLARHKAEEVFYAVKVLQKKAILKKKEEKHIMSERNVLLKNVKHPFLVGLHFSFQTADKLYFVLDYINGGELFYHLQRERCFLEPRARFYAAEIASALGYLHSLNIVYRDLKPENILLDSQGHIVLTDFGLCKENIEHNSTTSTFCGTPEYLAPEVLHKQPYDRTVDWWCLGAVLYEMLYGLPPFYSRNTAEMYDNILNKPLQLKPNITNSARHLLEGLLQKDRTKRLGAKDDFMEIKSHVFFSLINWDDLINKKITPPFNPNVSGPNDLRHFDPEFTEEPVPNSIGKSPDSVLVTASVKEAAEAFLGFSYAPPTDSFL
# T20 sequence (Q9NWZ3 whole entry): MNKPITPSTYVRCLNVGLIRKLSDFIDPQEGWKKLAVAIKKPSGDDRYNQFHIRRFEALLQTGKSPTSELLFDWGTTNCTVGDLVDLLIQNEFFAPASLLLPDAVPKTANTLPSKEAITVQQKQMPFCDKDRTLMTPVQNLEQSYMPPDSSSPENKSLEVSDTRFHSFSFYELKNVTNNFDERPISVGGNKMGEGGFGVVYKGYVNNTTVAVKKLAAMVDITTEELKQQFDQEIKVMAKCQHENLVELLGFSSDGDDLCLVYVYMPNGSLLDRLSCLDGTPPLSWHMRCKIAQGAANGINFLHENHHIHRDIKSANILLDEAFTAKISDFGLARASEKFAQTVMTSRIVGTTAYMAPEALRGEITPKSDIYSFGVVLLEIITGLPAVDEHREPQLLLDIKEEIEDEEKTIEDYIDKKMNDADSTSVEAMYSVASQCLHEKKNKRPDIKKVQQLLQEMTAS
# T13 sequence (Q05397 whole entry): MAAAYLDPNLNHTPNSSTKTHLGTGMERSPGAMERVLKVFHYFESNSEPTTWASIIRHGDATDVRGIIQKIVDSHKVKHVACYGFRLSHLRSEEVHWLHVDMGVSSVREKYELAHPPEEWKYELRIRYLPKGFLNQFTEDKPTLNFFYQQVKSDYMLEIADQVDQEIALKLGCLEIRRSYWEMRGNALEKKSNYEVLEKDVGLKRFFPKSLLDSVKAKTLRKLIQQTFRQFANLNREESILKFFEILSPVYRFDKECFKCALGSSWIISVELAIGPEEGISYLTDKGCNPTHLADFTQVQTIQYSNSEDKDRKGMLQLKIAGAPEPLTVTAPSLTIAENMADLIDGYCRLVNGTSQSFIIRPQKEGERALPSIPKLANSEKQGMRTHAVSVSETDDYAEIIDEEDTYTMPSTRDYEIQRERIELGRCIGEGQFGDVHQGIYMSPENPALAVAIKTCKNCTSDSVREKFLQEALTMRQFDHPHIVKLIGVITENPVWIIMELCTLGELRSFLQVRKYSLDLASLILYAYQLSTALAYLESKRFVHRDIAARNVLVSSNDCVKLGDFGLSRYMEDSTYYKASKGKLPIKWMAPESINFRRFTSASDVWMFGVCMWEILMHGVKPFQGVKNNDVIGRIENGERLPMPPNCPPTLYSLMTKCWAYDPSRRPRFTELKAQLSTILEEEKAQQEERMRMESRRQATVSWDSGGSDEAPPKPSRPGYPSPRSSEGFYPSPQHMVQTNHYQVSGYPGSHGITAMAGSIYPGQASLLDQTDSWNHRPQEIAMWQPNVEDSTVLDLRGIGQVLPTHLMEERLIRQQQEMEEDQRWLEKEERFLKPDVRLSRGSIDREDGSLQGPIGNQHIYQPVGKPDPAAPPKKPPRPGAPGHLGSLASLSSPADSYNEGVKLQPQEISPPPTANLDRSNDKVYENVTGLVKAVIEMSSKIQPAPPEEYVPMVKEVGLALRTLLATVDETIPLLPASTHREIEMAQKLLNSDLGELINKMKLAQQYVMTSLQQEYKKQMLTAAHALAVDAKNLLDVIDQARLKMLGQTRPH
# T15 sequence (P42685 whole entry): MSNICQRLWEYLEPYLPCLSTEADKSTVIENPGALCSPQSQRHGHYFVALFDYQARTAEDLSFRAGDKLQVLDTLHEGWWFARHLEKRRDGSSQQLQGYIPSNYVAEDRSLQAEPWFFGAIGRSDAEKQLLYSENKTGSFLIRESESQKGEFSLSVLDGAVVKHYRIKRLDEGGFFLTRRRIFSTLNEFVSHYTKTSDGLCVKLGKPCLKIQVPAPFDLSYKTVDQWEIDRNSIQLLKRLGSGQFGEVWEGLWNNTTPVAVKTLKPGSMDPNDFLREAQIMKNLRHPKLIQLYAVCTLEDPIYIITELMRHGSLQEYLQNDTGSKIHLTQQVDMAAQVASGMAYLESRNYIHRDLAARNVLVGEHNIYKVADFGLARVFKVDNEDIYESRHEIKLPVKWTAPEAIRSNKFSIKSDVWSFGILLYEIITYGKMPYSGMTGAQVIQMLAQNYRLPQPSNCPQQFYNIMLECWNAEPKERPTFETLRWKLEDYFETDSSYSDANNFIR
# T25 sequence (Q9Y6E0 whole entry): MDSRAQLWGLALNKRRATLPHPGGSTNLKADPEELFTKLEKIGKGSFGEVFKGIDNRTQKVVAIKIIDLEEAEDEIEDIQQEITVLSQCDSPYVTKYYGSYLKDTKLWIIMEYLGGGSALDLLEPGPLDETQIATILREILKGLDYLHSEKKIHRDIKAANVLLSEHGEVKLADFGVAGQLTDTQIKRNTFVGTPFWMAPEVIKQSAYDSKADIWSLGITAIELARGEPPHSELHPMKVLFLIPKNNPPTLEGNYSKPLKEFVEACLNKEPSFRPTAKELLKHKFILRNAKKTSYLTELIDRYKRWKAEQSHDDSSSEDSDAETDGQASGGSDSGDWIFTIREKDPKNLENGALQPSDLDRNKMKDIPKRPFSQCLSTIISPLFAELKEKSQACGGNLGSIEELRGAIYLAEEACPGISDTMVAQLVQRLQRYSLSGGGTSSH
structure (smiles),measurement,setting,value
"Cc1ccc(Nc2ncc3c(n2)N(C)C(=O)N(c2cc(C(=O)N[C@H](C(=O)N4CCC[C@H]4C(=O)NC(C)(C)C(=O)N[C@@H](CC(C)C)C(=O)N(C)C)C(C)C)ccc2C)C3)cn1 [7a, (S)-N-(1-(((S)-1-(dimethylamino)-4-methyl-1-oxopentan-2-yl)amino)-2-methyl-1-oxopropan-2-yl)-1-((4-methyl-3-(1-methyl-7-((6-methylpyridin-3-yl)amino)-2-oxo-1,4-dihydropyrimido[4,5-d]pyrimidin-3(2H)-yl)benzoyl)-L-valyl)pyrrolidine-2-carboxamide] (X1-VP[Aib]L-NMe2)",IC50,BMX/ETK,293 nM
same,IC50,Lck,23 nM
same,selectivity for Lck over c-Src,Lck,over 10 fold
same,Lck selectivity over c-Src (c-Src IC50 / Lck IC50),Lck; Table 2,37
same,IC50,Lyn,671 nM
same,inhibition at 1 µM,ALK6/BMPR1B,16%
same,inhibition at 1 µM,CAMK1d,8%
same,inhibition at 1 µM,CAMK2d,0%
same,inhibition at 1 µM,CAMKK1,0%
same,inhibition at 1 µM,CDK5/P25,0%
same,inhibition at 1 µM,CDK6/cyclin D3,0%
same,inhibition at 1 µM,DCAMKL1,0%
same,inhibition at 1 µM,DMPK2,0%
same,inhibition at 1 µM,EPHA1,3%
same,inhibition at 1 µM,FAK/PTK2,5%
same,inhibition at 1 µM,FES/FPS,18%
same,inhibition at 1 µM,FRK/PTK5,15%
same,inhibition at 1 µM,GCK/MAP4K2,13%
same,inhibition at 1 µM,GRK4,1%
same,inhibition at 1 µM,Haspin,1%
same,inhibition at 1 µM,IGF1R,0%
same,inhibition at 1 µM,IRAK4,4%
same,inhibition at 1 µM,JAK2,11%
same,inhibition at 1 µM,LOK/STK10,3%
same,inhibition at 1 µM,MEKK2,0%
same,inhibition at 1 µM,MSK1/RPS6KA5,0%
same,inhibition at 1 µM,MST3/STK24,0%
same,inhibition at 1 µM,MUSK,7%
same,inhibition at 1 µM,NEK9,8%
same,inhibition at 1 µM,NLK,3%
same,inhibition at 1 µM,PAK5,9%
same,inhibition at 1 µM,PBK/TOPK,0%
same,inhibition at 1 µM,PKCmu/PRKD1,0%
same,inhibition at 1 µM,PKG1b,0%
same,inhibition at 1 µM,PKMYT1,8%
same,inhibition at 1 µM,PLK4/SAK,5%
same,inhibition at 1 µM,ROCK2,10%
same,inhibition at 1 µM,SGK1,0%
same,inhibition at 1 µM,SNARK/NUAK2,6%
same,inhibition at 1 µM,SRPK2,0%
same,inhibition at 1 µM,SSTK/TSSK6,0%
same,inhibition at 1 µM,TBK1,0%
same,inhibition at 1 µM,TYK1/LTK,0%
same,inhibition at 1 µM,TYRO3/SKY,1%
